Melting point data for 87 compounds are collected here from a melting point compilation (Tetko et al.; mined from patent text by program, amines drawn as free bases though some values may be those of a salt).

Molecules are shown by their SMILES. A value given as a limit tells only on which side of the number the result lay.

In turn, `Cc1nc(N2CCN(Cc3ccc(C(F)(F)F)cc3)C2=O)sc1CO` showed a melting point of 153 to 154 °C.

Regarding `CCC(CC)c1[nH]c(C)c(C(C)=O)c1C`, the melting point was in the range of 186 to 189 °C. Next, `CC(CN1CCCC1)Oc1ccccc1CC(=O)N1CC2C(C1)C(c1ccccc1)(c1ccccc1)CCS2=O` (racemic): 126 °C; `COC(=O)C(=O)c1ccc(OCCCCOc2ccc3ccccc3c2)cc1`: 93 to 95 °C; `COc1cccc(CCC(=O)C2C(=O)CCC2=O)c1O`: 108 to 109 °C. Compound `NS(=O)(=O)c1cccc(-c2cccc(-c3nc(-c4ccc(Cl)cc4)cc(C(F)(F)F)n3)c2)c1` had a melting point of 165 °C. The value for `CCOC(=O)c1cc(CC)sc1Nc1ccc(Br)cc1[N+](=O)[O-]` was 76 to 78 °C.

As for `CCCc1c(OCC2Cc3cc(C(=O)CCC(=O)O)ccc3O2)ccc(C(C)=O)c1O` (configuration not stated), the melting point came out at 80 °C. In the case of `O=C(c1ccccc1)c1nc(Br)ccc1[N+](=O)[O-]`, the melting point lay in the range of 146 to 148 °C. Next, `CCOC(=O)C1=C2c3[nH]c4ccc(Cl)cc4c3CCN2CCC1`: 82 to 83 °C; `COC(=O)C(C)(C)c1ccc2cc(OC)ccc2c1`: 97 to 98 °C; `O=C(Nc1ccc2ccc(Cl)nc2n1)c1ccc2c(c1)OCO2`: 256 °C. Next, `CCNC(=O)Oc1ccccc1`: 49 to 50 °C; `O=C(O)C1CCc2c(n(C(=O)c3ccccc3)c3ccc(Cl)cc23)C1` (configuration not stated): 196 to 197 °C. The value for `Cc1ccc(C(=O)N(C(C)C)C(C)C)c(C(=O)O)c1F` was 147 to 149 °C. Regarding `CC1CN(c2cc3c(cc2F)C(=O)c2nc4ccccc4c(=O)n2-3)CCN1` (configuration not stated), the melting point lay within 225 to 227 °C. Next, `CN1C(=O)CN=C(c2ccccc2F)c2cc(NC(=O)NCc3ccccc3)ccc21`: 174 to 178 °C; `C=CC[C@H]1C(=O)N(S(=O)(=O)c2cc3ccccc3s2)[C@@H]2CCN(C(=O)OCc3ccccc3)[C@H]21` (relative stereo): 146 °C. The value for `COC(=O)c1ccc(-c2nc(-c3ccc(Cl)cc3)cs2)cc1` was 186 to 187 °C; that for `CC1CC(C)(C)NC(c2ccccc2)=N1` (configuration not stated) was 86 to 87 °C. As to `N#CC1(Cc2ccccc2)CCN(Cc2ccccc2)CC1`, the melting point was 92 °C. Next, `COc1ccc(CCN(C)CCCOc2ccc(NC(=O)c3cccc4c(=O)c5ccccc5[nH]c34)cc2)cc1OC`: 140 °C; `Cc1cc2ccccc2c(Oc2ccc(/C=C/C(=O)O)cc2)c1-c1ccccc1`: 224 to 225 °C; `CC(=O)c1cc(-c2ccccc2)c(=O)n2c1-c1sccc1CC2`: 149 to 150 °C. Next, `CCCCc1cc(C(=O)O)ncc1C(=O)O`: 239 °C; `COc1cc(OCc2ccccn2)ccc1/C=C/c1cc(/C=C/c2ccc3c(c2)OCCO3)n[nH]1`: 153 to 155 °C; `Cc1ccc([N+](=O)[O-])cc1C=Cc1ccccc1`: 65.5 °C. The value for `CCCCCCc1nc(C(C)=O)c[nH]1` was 104 to 106 °C; that for `Cc1cccc(-n2nc(C)cc2-c2ccnc(N(C)C)c2)c1` was 84 to 85 °C. In the case of `Fc1cc(F)cc(N2c3ccccc3Sc3ccccc32)c1`, the melting point was in the range of 111 to 115 °C. In turn, `CC(=O)OCC1=C(C(=O)OC(C)(C)C)N2C(=O)C(NC(=O)Cn3ccnc3S(C)(=O)=O)C2SC1` (configuration not stated) returned a melting point of 164 °C. Next, `CCN1C(=O)C(C(=O)Nc2cccc(S(C)=O)c2)c2cc3c(cc21)CCO3` (configuration not stated): 180 to 185 °C; `Cc1cc(-c2c3ccccc3c(C)c3sc4ccccc4c23)cc(C)c1O`: 147 to 149 °C. Next, `Cc1ccsc1C(=O)c1cccn1N`: 42 to 44 °C; `CC(Oc1ccc(C(=O)c2ccc(O)cc2)c(Cl)c1Cl)C(=O)O` (configuration not stated): 208 to 212 °C; `Cc1ccc(O)c(C)c1C=O`: 159 to 165 °C. On to `CC(C)(C)c1cc(CCC(=O)OC2CCCCCCCCCCC2OC(=O)CCc2cc(C(C)(C)C)c(O)c(C(C)(C)C)c2)cc(C(C)(C)C)c1O` (configuration not stated), for which the melting point lay within 61 to 74 °C. Next, `CCCCCN(C(=O)Nc1ccc(C(=O)O)cc1F)c1ccc2c(c1)C(C)(C)CCC2(C)C`: 151 to 157 °C. With `CCOC(=O)CC(=O)c1cc2cc(F)c(F)cc2nc1Cl`, the melting point worked out at 107 °C. For `COc1ccc(C(C)=O)c(CC(=O)O)c1`, the melting point lay in the range of 153 to 155 °C. The value for `Cc1cc(C2=NO[C@@](c3cc(Cl)c(F)c(Cl)c3)(C(F)(F)F)C2)ccc1C(=O)NC1CS(=O)(=O)C1` was 134 to 136 °C. Next, `C=CCC(CC=C)C(=O)O[C@H]1C[C@H](O)C=C2C=C[C@H](C)[C@H](CC[C@@H]3C[C@@H](O)CC(=O)O3)[C@H]21`: 159 to 160 °C; `COc1cccc(-c2cc(Cl)cc3c2OC(C(F)(F)F)C(C(=O)O)=C3)c1` (configuration not stated): 173 to 177 °C; `O=C(c1ccccc1)N1CCc2cc(S(=O)(=O)n3cc(-c4ccccc4)[nH]c3=O)ccc21`: 167 to 170 °C. The value for `Cc1cccnc1-n1c(=S)nc2c(C)cccn2c1=S` was 131 to 132 °C; that for `Cc1nnc(-c2ccc3occ(-c4cc(C(F)(F)F)ccc4F)c3c2)o1` was 178 to 179 °C. With `Cn1ncnc1COc1nn2c(-c3ccccc3F)nncc2c1-c1ccccc1F`, the melting point came to 169 °C. The value for `NC(=O)c1ccc(OCC(O)CCCl)cc1` (configuration not stated) was 150 to 153 °C. Next, `NC(=O)c1cc2cc(OCC(O)CCl)ccc2o1` (configuration not stated): 136 to 138 °C; `CN1C(=O)C2(COc3cc4c(cc32)OCCO4)c2c(N3CCOCC3)cccc21` (configuration not stated): 246 to 249 °C. Next, `CC=CCn1c(C)c(C)c2cnnc(OCc3ccc(Cl)cc3F)c21`: 106 to 109 °C. In the case of `N#Cc1cc(-c2cccnc2)nn1-c1ccc(NCC2Cc3ccccc3C2)cc1`, the melting point lay in the range of 156 to 158 °C.

With `CON=C(c1ccccc1)c1ccc2c(c1)C(C)(C)CCN2CCOc1ccc(CC(OCC(F)(F)F)C(=O)O)cc1` (configuration not stated), the melting point lay in the range of 62 to 64 °C. Next, `CC(=O)OCC1OC(n2c3ncccc3c3c4c(c5c6cccnc6[nH]c5c32)C(=O)N(C)C4=O)C(OC(C)=O)C(OC(C)=O)C1OC(C)=O` (configuration not stated): > 300 °C; `Cc1ccc(S(=O)(=O)OCC2CCN(C(=O)c3cccc(C)c3)CC2)cc1`: 68 to 70 °C.

With `CCCCOc1ccc(C=C2C(=O)C3(C)CCC2C3(C)C)cc1` (configuration not stated), the melting point was 62 °C.

On to `COC(=O)Cc1cnc(-c2ccccc2)n1Cc1ccc([N+](=O)[O-])cc1`, for which the melting point fell in the range of 113 to 116 °C. Next, `CCCOC1=NS(=O)(=O)N(C)C(Oc2ccc([N+](=O)[O-])cc2)=N1`: 129 to 131 °C; `Cc1c(-c2cc(C(=O)O)c(Cl)cc2F)nn(C)c1C(F)(F)F`: 155 °C; `NCC1Cc2cc(-c3cccc(Cl)c3)cc(F)c2O1` (configuration not stated): > 250 °C. The value for `COC(=O)Cc1ccc(OCCNC(=O)C2Cc3ccccc3N2S(=O)(=O)c2ccc(-c3cc(F)ccc3Cl)cc2)cc1` (configuration not stated) was 52 to 56 °C; that for `COCCn1c2cc(OCCCO)c(OC)cc2c2c3c(c(-c4ccccc4Cl)cc21)C(=O)NC3=O` was 251 to 257 °C.

On to `CN(Cc1cc2c(=O)c(C(=O)NCc3ccc(Cl)cc3)cn(C)c2o1)CC(O)c1ccccc1` (configuration not stated), for which the melting point lay in the range of 118 to 121 °C.

Compound `CCC(C(C)=CC(CNC(=O)c1cc(C)n[nH]1)=NO)[N+](=O)[O-]` (configuration not stated) had a melting point of 188 to 189 °C. The value for `O=C(NCCCSc1ccncc1)c1ccco1` was 98 to 99 °C. Next, `CN=C=Nc1ccccc1N1CCOCC1`: 67 to 68 °C; `O=C(O)c1ccc(-c2ccc3cc(OCc4ccccc4)c(C45CC6CC(CC(C6)C4)C5)cc3c2)cc1O`: 263 to 264 °C; `CCc1cc(-c2cccnc2)nn1-c1ccc(NCc2ccc(OCCCC#N)cc2)cc1`: 131 to 132 °C. Next, `Nn1ccc(C(=O)c2ccccc2)c1`: 82 to 83 °C. As to `Cc1c(C(C)O)ssc1=S` (configuration not stated), the melting point lay within 79 to 80 °C.

The compound `O=[N+]([O-])c1cc(F)ccc1N1CCc2ccccc21` displayed a melting point of 87 to 89 °C.

`Cc1cc2c(cc1Cl)NC(=O)CC(c1cccc(-c3ccnc(CNC4CC4)c3)c1)=N2` had a melting point of 171 °C.

`Cc1ccc(C(=O)c2ccccc2C2=NCCN2C(C)C)cc1` returned a melting point of 87 to 89 °C. Consider `O=C(O)c1cccn1Cc1ccco1`, for which the melting point is 117 to 118 °C. The value for `COc1ccc(Br)c(C=O)c1O` was 102 to 103 °C; that for `CS(=O)(=O)OCCC1c2ccccc2C(=O)N1c1ccccc1` (configuration not stated) was 100 to 101 °C; that for `Cn1c(Sc2ccc(C(=O)OCC(C)(C)C)c(Cl)c2)n[nH]c1=O` was 138 °C.

`Cc1cc(OC(F)F)nc(NC(=O)NS(=O)(=O)c2ccccc2OC(F)F)n1` registered a melting point of 163 to 164 °C. Next, `CCCCC(CC)(CO)C(=O)O` (configuration not stated): 45 to 46 °C; `FC(F)(c1ccccc1)C(F)(F)c1ccccc1CBr`: 70 to 77 °C; `CC(=O)OC1C=C(C)C(=O)CC(C)(C)C1OC(=O)c1ccc(Cl)cc1` (configuration not stated): 86 to 87 °C.

On to `CCCCCCCCCCCCCCOC(=O)c1cc(N)cc(C(=O)OCCCCCCCCCCCCCC)c1`, for which the melting point lay in the range of 74 to 75 °C. With `CC(C)(C)c1cc(SCc2cccc(C#N)c2)cc(C(C)(C)C)c1O`, the melting point lay in the range of 61 to 63 °C. `COc1ccc(CCN(C)CCCC(C)(C(=O)OC(C)C)c2ccc(OC)c(OC)c2)cc1OC` (configuration not stated) yielded a melting point of 85 to 87 °C. Next, `CCN1CCCC1CNS(=O)(=O)c1ccc(Nc2ccnc3cc(C(F)(F)F)ccc23)cc1` (configuration not stated): 194 to 195 °C. Next, `O=C1CC(c2ccc(Cl)cc2)ON1CC(O)CN1CCOCC1` (configuration not stated): 121 to 123 °C; `O=C(Nc1ccc(Cl)cc1)O[C@H]1COC(c2ccccc2)=N[C@@H]1c1ccccc1` (racemic): 200 °C.
